The text below walks through data of patent US20060264460A1 (Wyeth, priority 2005, published 2006).

Where only a bound is given, the exact number is not on record here.

In this test the target is T1, human Cot/Tpl2 kinase (Homo sapiens, UniProt P41279).
T1 construct: human Cot/Tpl2 kinase construct encoding residues 30-398; 6His (N); made in house; host or cells: Sf9 insect cells, baculovirus system (BD Biosciences)
T1 sequence (P41279 30-398): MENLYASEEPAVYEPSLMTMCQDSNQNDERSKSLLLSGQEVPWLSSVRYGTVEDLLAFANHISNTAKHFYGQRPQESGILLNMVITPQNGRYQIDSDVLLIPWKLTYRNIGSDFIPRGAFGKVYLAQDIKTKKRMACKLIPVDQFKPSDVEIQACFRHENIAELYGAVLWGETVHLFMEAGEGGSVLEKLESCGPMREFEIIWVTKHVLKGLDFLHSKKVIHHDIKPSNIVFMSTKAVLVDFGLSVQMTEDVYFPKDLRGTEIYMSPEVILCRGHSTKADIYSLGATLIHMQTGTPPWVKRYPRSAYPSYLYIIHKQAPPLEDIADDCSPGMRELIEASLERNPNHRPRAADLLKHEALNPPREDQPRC
The test is described as follows: Tpl2/Cot kinase assay: GST-MEK1 phosphorylation detected by ELISA (DELFIA Eu). As to conditions: 0.4 nM Tpl2, 35 nM GST-MEK1, 50 uM ATP, 1 h at 30° C. In kind it is biochemical. The gist of the method: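 His-tagged human Tpl2 from Sf9 cells, Ni-affinity and size-exclusion purified (monomer). 0.4 nM Tpl2 with 35 nM GST-MEK1, 50 uM ATP, MOPS pH 7.2, 1% DMSO, 1 h at 30° C; EDTA stop. MEK1 Ser217/221 phosphorylation detected by anti-phospho-MEK1 and Eu-labelled secondary ELISA; IC50 fitted.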
A general note: ELISA stands for enzyme-linked immunosorbent assay.
As usually defined, the IC50 is the midpoint of a concentration-inhibition curve. Turning to `Cc1cc(CNc2cc(C(=O)N(C)C)c3ncc(C#N)c(Nc4ccc(F)c(Cl)c4)c3c2)n(C)n1` [Example 90, 4-(3-chloro-4-fluorophenylamino)-3-cyano-6-((1,3-dimethyl-1-H-pyrazol-5-yl)methylamino)-N, N-dimethylquinoline-8-carboxamide], the 50% inhibitory concentration (IC50) was 1700 nM.
In the case of `CN(C)C(=O)c1cc(NCc2ccccn2)cc2c(Nc3ccc(F)c(Cl)c3)c(C#N)cnc12` [Example 91, 4-(3-chloro-4-fluorophenylamino)-3-cyano-N,N-dimethyl-6-(pyridin-2-ylmethylamino)quinoline-8-carboxamide] it was 360 nM; in that of `Cc1cccc(CNc2cc(C(=O)N(C)C)c3ncc(C#N)c(Nc4ccc(F)c(Cl)c4)c3c2)c1` [Example 92, 4-(3-chloro-4-fluorophenylamino)-3-cyano-N,N-dimethyl-6-(3-methylbenzylamino)quinoline-8-carboxamide], above 40000 nM; in that of `CC(C)NC(=O)c1cc(NCc2cccnc2)cc2c(Nc3ccc(F)c(Cl)c3)c(C#N)cnc12` [Example 93, 4-(3-chloro-4-fluorophenylamino)-3-cyano-N-isopropyl-6-(pyridin-3-ylmethylamino)quinoline-8-carboxamide], above 40000 nM.
`CN(C)C(=O)c1cc(NCc2cccnc2)cc2c(Nc3ccc(F)c(Cl)c3)c(C#N)cnc12` [Example 94, 4-(3-chloro-4-fluorophenylamino)-3-cyano-N,N-dimethyl-6-(pyridin-3-ylmethylamino)quinoline-8-carboxamide] showed a concentration for half-maximal inhibition (IC50) of 530 nM.
Compound `N#Cc1cnc2c(Br)cc(NCc3cnc[nH]3)cc2c1NC1CCCC1` [Example 96, 6-((1H-imidazol-5-yl)methylamino)-8-bromo-4-(cyclopentylamino)quinoline-3-carbonitrile] displayed an IC50 of 440 nM.
In the case of `N#Cc1cnc2c(Br)cc(NCc3cnc[nH]3)cc2c1NC1CCCCCC1` [Example 97, 6-((1H-imidazol-5-yl)methylamino)-8-bromo-4-(cycloheptylamino)quinoline-3-carbonitrile] it was 230 nM; in that of `CC(C)(C)Nc1c(C#N)cnc2c(Br)cc(NCc3cnc[nH]3)cc12` [Example 98, 6-((1H-imidazol-5-yl)methylamino)-8-bromo-4-(tert-butylamino)quinoline-3-carbonitrile], 1500 nM.
In the case of `N#Cc1cnc2ccc(NCc3cccnc3)cc2c1Nc1ccc(C(N)=O)cc1` [Example 99, 4-(3-cyano-6-(pyridin-3-ylmethylamino)quinolin-4-ylamino)benzamide] it was 24100 nM.
In turn, `N#Cc1cnc2c(-c3ccsc3)cc(NCc3cccnc3)cc2c1Nc1cccc(Cl)c1` [Example 100, 4-(3-chlorophenylamino)-6-(pyridin-3-ylmethylamino)-8-(thiophen-3-yl)quinoline-3-carbonitrile] yielded an IC50 above 40000 nM.
For the compound `N#Cc1cnc2c(Br)cc(NCc3cccc[n+]3[O-])cc2c1Nc1ccc(F)c(Cl)c1` [Example 101, 8-bromo-4-(3-chloro-4-fluorophenylamino)-6-(1-oxypyridin-2-ylmethylamino)quinoline-3-carbonitrile], the concentration for half-maximal inhibition (IC50) turned out to be 4.1 nM.
As for `N#Cc1cnc2c(-c3ccoc3)cc(NCc3cccnc3)cc2c1Nc1ccc(F)c(Cl)c1` [Example 102, 4-(3-chloro-4-fluorophenylamino)-8-(furan-3-yl)-6-(pyridin-3-ylmethylamino)quinoline-3-carbonitrile], the figure is 1300 nM; as for `CN(C)C(=O)CNc1ccc2ncc(C#N)c(Nc3ccc(F)c(Cl)c3)c2c1` [Example 103, 2-(4-(3-chloro-4-fluorophenylamino)-3-cyanoquinolin-6-ylamino)-N,N-dimethylacetamide], 510 nM.
In the case of `CC(C)(C)Nc1c(C#N)cnc2c(Br)cc(NCc3cccc[n+]3[O-])cc12` [Example 104, 8-bromo-4-(tert-butylamino)-6-(1-oxypyridin-2-ylmethylamino)quinoline-3-carbonitrile] it was 1500 nM; in that of `Cc1ncc(CNc2cc(Br)c3ncc(C#N)c(Nc4ccc(F)c(Cl)c4)c3c2)[nH]1` [Example 105, 8-bromo-4-(3-chloro-4-fluorophenylamino)-6-((2-methyl-1H-imidazol-5-yl)methylamino)quinoline-3-carbonitrile], 170 nM; in that of `N#Cc1cnc2c(Br)cc(NCc3cnc(-c4ccccc4)[nH]3)cc2c1Nc1ccc(F)c(Cl)c1` [Example 106, 8-bromo-4-(3-chloro-4-fluorophenylamino)-6-((2-phenyl-1H-imidazol-5-yl)methylamino)quinoline-3-carbonitrile], 5900 nM.
In the case of `CCCCc1ncc(CNc2cc(Br)c3ncc(C#N)c(Nc4ccc(F)c(Cl)c4)c3c2)[nH]1` [Example 107, 8-bromo-6-((2-butyl-1H-imidazol-5-yl)methylamino)-4-(3-chloro-4-fluorophenylamino)quinoline-3-carbonitrile] it was 900 nM; in that of `CNC(=O)CNc1ccc2ncc(C#N)c(Nc3ccc(F)c(Cl)c3)c2c1` [Example 108, 2-(4-(3-chloro-4-fluorophenylamino)-3-cyanoquinolin-6-ylamino)-N-methylacetamide], 550 nM.
Take `C/C=C/c1cc(NCc2cccnc2)cc2c(Nc3ccc(F)c(Cl)c3)c(C#N)cnc12` [Example 109, (E)-4-(3-chloro-4-fluorophenylamino)-8-(prop-1-enyl)-6-(pyridin-3-ylmethylamino)quinoline-3-carbonitrile]: half-maximal inhibition (IC50) was put at 2200 nM.
Regarding `COC(=O)c1nc[nH]c1CNc1cc(Br)c2ncc(C#N)c(Nc3ccc(F)c(Cl)c3)c2c1` [Example 110, Methyl 5-((8-bromo-4-(3-chloro-4-fluorophenylamino)-3-cyanoquinolin-6-ylamino)methyl)-1H-imidazole-4-carboxylate], 87 nM corresponded to half-maximal inhibition (IC50).
As for `N#Cc1cnc2c(Br)cc(NCc3[nH]cnc3-c3ccccc3)cc2c1Nc1ccc(F)c(Cl)c1` [Example 111, 8-bromo-4-(3-chloro-4-fluorophenylamino)-6-((4-phenyl-1H-imidazol-5-yl)methylamino)quinoline-3-carbonitrile], the figure is 33 nM; as for `CCc1nc[nH]c1CNc1cc(Br)c2ncc(C#N)c(Nc3ccc(F)c(Cl)c3)c2c1` [Example 112, 8-bromo-4-(3-chloro-4-fluorophenylamino)-6-((4-ethyl-1H-imidazol-5-yl)methylamino)quinoline-3-carbonitrile], 3.5 nM.
In the case of `Cc1c(CNc2cc(Br)c3ncc(C#N)c(Nc4ccc(F)c(Cl)c4)c3c2)ncn1C` [Example 113, 8-bromo-4-(3-chloro-4-fluorophenylamino)-6-((1,5-dimethyl-1H-imidazol-4-yl)methylamino)quinoline-3-carbonitrile] it was 10 nM.
With `N#Cc1cnc2c(Br)cc(NCc3[nH]cnc3C(F)(F)F)cc2c1Nc1ccc(F)c(Cl)c1` [Example 114, 8-bromo-4-(3-chloro-4-fluorophenylamino)-6-((4-(trifluoromethyl)-1H-imidazol-5-yl)methylamino)quinoline-3-carbonitrile], the concentration for half-maximal inhibition (IC50) turned out to be 310 nM.
In turn, `CC(C)c1nc[nH]c1CNc1cc(Br)c2ncc(C#N)c(Nc3ccc(F)c(Cl)c3)c2c1` [Example 115, 8-bromo-4-(3-chloro-4-fluorophenylamino)-6-((4-isopropyl-1H-imidazol-5-yl)methylamino)quinoline-3-carbonitrile] had a 50% inhibitory concentration (IC50) of 130 nM.
As for `N#Cc1cnc2c(Br)cc(NC(=O)Cc3cnc[nH]3)cc2c1Nc1ccc(F)c(Cl)c1` [Example 117, N-(8-bromo-4-(3-chloro-4-fluorophenylamino)-3-cyanoquinolin-6-yl)-2-(1H-imidazol-5-yl)acetamide], the figure is above 40000 nM; as for `N#Cc1cnc2c(Br)cc(NCc3nn[nH]c3-c3ccccc3F)cc2c1Nc1ccc(F)c(Cl)c1` [Example 118, 8-bromo-4-[(3-chloro-4-fluorophenyl)amino]-6-({[5-(2-fluorophenyl)-1H-1,2,3-triazol-4-yl]methyl}amino)quinoline-3-carbonitrile], 110 nM.
As for `N#Cc1cnc2c(Br)cc(NCc3nn[nH]c3-c3cccc(F)c3)cc2c1Nc1ccc(F)c(Cl)c1` [Example 119, 8-bromo-4-[(3-chloro-4-fluorophenyl)amino]-6-({[5-(3-fluorophenyl)-1H-1,2,3-triazol-4-yl]methyl}amino)quinoline-3-carbonitrile], the figure is 350 nM; as for `N#Cc1cnc2ccc(NCc3ccc(S(=O)(=O)N4CCOCC4)cc3)cc2c1Nc1ccc(F)c(Cl)c1` [Example 120, 6-(4-(morpholinosulfonyl)benzylamino)-4-(3-chloro-4-fluorophenylamino)quinoline-3-carbonitrile], 24 nM.
Take `N#Cc1cnc2ccc(NCc3ccc(S(N)(=O)=O)cc3)cc2c1Nc1ccc(F)c(Cl)c1` [Example 121, 4-((4-(3-chloro-4-fluorophenylamino)-3-cyanoquinolin-6-ylamino)methyl)benzenesulfonamide]: the IC50 came to 114 nM.
Regarding `CN1CCN(S(=O)(=O)c2ccc(CNc3ccc4ncc(C#N)c(Nc5ccc(F)c(Cl)c5)c4c3)cc2)CC1` [Example 122, 6-(4-(4-methylpiperazin-1-ylsulfonyl)benzylamino)-4-(3-chloro-4-fluorophenylamino)quinoline-3-carbonitrile], the 50% inhibitory concentration (IC50) was determined as 580 nM.
With `CN(C)CCNS(=O)(=O)c1ccc(CNc2ccc3ncc(C#N)c(Nc4ccc(F)c(Cl)c4)c3c2)cc1` [Example 123, 4-((4-(3-chloro-4-fluorophenylamino)-3-cyanoquinolin-6-ylamino)methyl)-N-(2-(dimethylamino)ethyl)benzenesulfonamide], the half-maximal inhibitory concentration (IC50) turned out to be 540 nM.
As for `CN(C)Cc1cc(NCc2cccnc2)cc2c(Nc3cccc(Br)c3)c(C#N)cnc12` [Example 124, 4-(3-bromophenylamino)-8-((dimethylamino)methyl)-6-(pyridin-3-ylmethylamino)quinoline-3-carbonitrile], the figure is above 10000 nM.
